Measurements reported in PubChem BioAssay (NCI).
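Step 1: Grow cells in 96-well plates. Step 2: Expose to compound for 48 hours at 5 concentrations. Step 3: Interpolate endpoints linearly; if unreached, use highest concentration. GI50 = concentration required for 50% inhibition of growth. TGI denotes the concentration required for complete inhibition of growth.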

Experiments:
Assay in all cases: DTP human tumour cell line panel, 48 h
MCF7 breast = tested on: MCF7 breast
SNB-19 CNS = tested on: SNB-19 CNS
OVCAR-5 ovarian = tested on: OVCAR-5 ovarian
UACC-257 melanoma = tested on: UACC-257 melanoma
PC-3 prostate = tested on: PC-3 prostate
HOP-92 NSCLC = tested on: HOP-92 NSCLC
KM12 colon = tested on: KM12 colon
HCT-15 colon = tested on: HCT-15 colon
NCI-H226 lung = tested on: NCI-H226 lung
DU-145 prostate = tested on: DU-145 prostate
M14 melanoma = tested on: M14 melanoma
U251 CNS = tested on: U251 CNS
SW-620 colon = tested on: SW-620 colon
EKVX NSCLC = tested on: EKVX NSCLC
HS 578T breast = tested on: HS 578T breast
UO-31 renal = tested on: UO-31 renal
OVCAR-4 ovarian = tested on: OVCAR-4 ovarian
HT29 colon = tested on: HT29 colon
NCI-H460 lung = tested on: NCI-H460 lung
A549 NSCLC = tested on: A549 NSCLC
SK-OV-3 ovarian = tested on: SK-OV-3 ovarian
LOX IMVI melanoma = tested on: LOX IMVI melanoma
HCC-2998 colon = tested on: HCC-2998 colon
K-562 leukemia = tested on: K-562 leukemia
SK-MEL-5 melanoma = tested on: SK-MEL-5 melanoma
SF-539 CNS = tested on: SF-539 CNS
NCI/ADR-RES ovarian = tested on: NCI/ADR-RES ovarian
T-47D breast = tested on: T-47D breast
SK-MEL-28 melanoma = tested on: SK-MEL-28 melanoma
UACC-62 melanoma = tested on: UACC-62 melanoma
SF-295 CNS = tested on: SF-295 CNS
OVCAR-8 ovarian = tested on: OVCAR-8 ovarian
SK-MEL-2 melanoma = tested on: SK-MEL-2 melanoma
MDA-MB-435 = tested on: MDA-MB-435
HOP-62 NSCLC = tested on: HOP-62 NSCLC
SF-268 CNS = tested on: SF-268 CNS
MOLT-4 leukemia = tested on: MOLT-4 leukemia
RPMI-8226 leukemia = tested on: RPMI-8226 leukemia
NCI-H23 lung = tested on: NCI-H23 lung
RXF 393 renal = tested on: RXF 393 renal
SR leukemia = tested on: SR leukemia
COLO 205 colon = tested on: COLO 205 colon
IGROV1 ovarian = tested on: IGROV1 ovarian
CAKI-1 renal = tested on: CAKI-1 renal
A498 renal = tested on: A498 renal
NCI-H522 lung = tested on: NCI-H522 lung
MALME-3M melanoma = tested on: MALME-3M melanoma
ACHN renal = tested on: ACHN renal
MDA-MB-231 breast = tested on: MDA-MB-231 breast
SN12C renal = tested on: SN12C renal
OVCAR-3 ovarian = tested on: OVCAR-3 ovarian
TK-10 renal = tested on: TK-10 renal
HCT-116 colon = tested on: HCT-116 colon
786-0 renal = tested on: 786-0 renal
CCRF-CEM leukemia = tested on: CCRF-CEM leukemia
SNB-75 CNS = tested on: SNB-75 CNS
HL-60(TB) leukemia = tested on: HL-60(TB) leukemia
BT-549 breast = tested on: BT-549 breast

O=Cc1cn(Cc2cccc(Cl)c2)c2ccccc12
GI50 (MCF7 breast): 1.85 µM
TGI (MCF7 breast): 19.4 µM
GI50 (SNB-19 CNS): 12.9 µM
TGI (SNB-19 CNS): 27.3 µM
GI50 (OVCAR-5 ovarian): 0.0263 µM
TGI (OVCAR-5 ovarian): 0.504 µM
GI50 (UACC-257 melanoma): 1.05 µM
TGI (UACC-257 melanoma): 3.63 µM
GI50 (PC-3 prostate): 5.76 µM
TGI (PC-3 prostate): 22.4 µM
GI50 (HOP-92 NSCLC): 6.19 µM
TGI (HOP-92 NSCLC): 20.8 µM
GI50 (KM12 colon): 14.7 µM
TGI (KM12 colon): 35.1 µM
GI50 (HCT-15 colon): 11.6 µM
TGI (HCT-15 colon): 25.2 µM
TGI (NCI-H226 lung): 0.0499 µM
GI50 (DU-145 prostate): 12.5 µM
TGI (DU-145 prostate): 25 µM
GI50 (M14 melanoma): 11.4 µM
TGI (M14 melanoma): 26.9 µM
GI50 (U251 CNS): 9.61 µM
TGI (U251 CNS): 21.8 µM
GI50 (SW-620 colon): 7.37 µM
TGI (SW-620 colon): 23.1 µM
GI50 (EKVX NSCLC): 9.9 µM
TGI (EKVX NSCLC): 25 µM
GI50 (HS 578T breast): 7.27 µM
TGI (HS 578T breast): 34.1 µM
GI50 (UO-31 renal): 5.49 µM
TGI (UO-31 renal): 21.1 µM
GI50 (OVCAR-4 ovarian): 2.88 µM
TGI (OVCAR-4 ovarian): 18.3 µM
GI50 (HT29 colon): 13 µM
TGI (HT29 colon): 32.3 µM
GI50 (NCI-H460 lung): < 0.0112 µM
TGI (NCI-H460 lung): 15.5 µM
GI50 (A549 NSCLC): 15.9 µM
TGI (A549 NSCLC): 48.5 µM
GI50 (SK-OV-3 ovarian): 1.8 µM
TGI (SK-OV-3 ovarian): 16 µM
GI50 (LOX IMVI melanoma): 7.4 µM
TGI (LOX IMVI melanoma): 21 µM
GI50 (HCC-2998 colon): 12.5 µM
TGI (HCC-2998 colon): 26.2 µM
GI50 (K-562 leukemia): 2.97 µM
TGI (K-562 leukemia): > 56.7 µM
GI50 (SK-MEL-5 melanoma): 4.1 µM
TGI (SK-MEL-5 melanoma): 17.4 µM
GI50 (SF-539 CNS): 14.7 µM
TGI (SF-539 CNS): 28 µM
GI50 (NCI/ADR-RES ovarian): 7.99 µM
TGI (NCI/ADR-RES ovarian): 28.2 µM
GI50 (T-47D breast): 0.736 µM
TGI (T-47D breast): 13.4 µM
GI50 (SK-MEL-28 melanoma): 15.9 µM
TGI (SK-MEL-28 melanoma): 31.1 µM
GI50 (UACC-62 melanoma): 0.533 µM
TGI (UACC-62 melanoma): 6.45 µM
GI50 (SF-295 CNS): 0.948 µM
TGI (SF-295 CNS): 14.2 µM
GI50 (OVCAR-8 ovarian): 10.3 µM
TGI (OVCAR-8 ovarian): 31.3 µM
GI50 (SK-MEL-2 melanoma): 7.7 µM
TGI (SK-MEL-2 melanoma): 26.4 µM
GI50 (MDA-MB-435): 12.2 µM
TGI (MDA-MB-435): 28.5 µM
GI50 (HOP-62 NSCLC): 2.57 µM
TGI (HOP-62 NSCLC): 19.5 µM
GI50 (SF-268 CNS): 11.7 µM
TGI (SF-268 CNS): 26.3 µM
GI50 (MOLT-4 leukemia): 6.69 µM
TGI (MOLT-4 leukemia): 31.8 µM
GI50 (RPMI-8226 leukemia): 4.76 µM
TGI (RPMI-8226 leukemia): 25.2 µM
GI50 (NCI-H23 lung): 9.33 µM
TGI (NCI-H23 lung): 26.9 µM
TGI (RXF 393 renal): > 33 µM
GI50 (SR leukemia): 23.9 µM
TGI (SR leukemia): 55.7 µM
GI50 (COLO 205 colon): 0.355 µM
TGI (COLO 205 colon): 14 µM
GI50 (IGROV1 ovarian): 0.263 µM
TGI (IGROV1 ovarian): 14.7 µM
GI50 (CAKI-1 renal): 0.214 µM
TGI (CAKI-1 renal): 1.89 µM
GI50 (A498 renal): 0.135 µM
TGI (A498 renal): 0.299 µM
GI50 (NCI-H522 lung): 20.3 µM
TGI (NCI-H522 lung): 45.7 µM
GI50 (MALME-3M melanoma): 13.5 µM
TGI (MALME-3M melanoma): 33.8 µM
GI50 (ACHN renal): 12.9 µM
TGI (ACHN renal): 26.8 µM
GI50 (MDA-MB-231 breast): 7.72 µM
TGI (MDA-MB-231 breast): 21.5 µM
GI50 (SN12C renal): 10.7 µM
TGI (SN12C renal): 23.5 µM
GI50 (OVCAR-3 ovarian): 2.7 µM
TGI (OVCAR-3 ovarian): 16.6 µM
GI50 (TK-10 renal): 0.136 µM
TGI (TK-10 renal): 1.27 µM
GI50 (HCT-116 colon): 2.39 µM
TGI (HCT-116 colon): 16 µM
GI50 (786-0 renal): 8.95 µM
TGI (786-0 renal): 24.4 µM
GI50 (CCRF-CEM leukemia): 9.99 µM
TGI (CCRF-CEM leukemia): 50.3 µM
GI50 (SNB-75 CNS): 8.99 µM
TGI (SNB-75 CNS): 25.1 µM
GI50 (HL-60(TB) leukemia): 7.5 µM
TGI (HL-60(TB) leukemia): 29.9 µM
GI50 (BT-549 breast): 5.25 µM
TGI (BT-549 breast): 18.6 µM
